Values of other authors, collected in patent US20150352111A1, “Therapeutic Indications of Kinase Inhibitors” (Pulmokine, Inc., priority 2013, published 2015).

How the values were obtained:
PASMCs = settings: cited from earlier work
rat MCT model of PAH = settings: cited from earlier work
patients with PAH = settings: cited from earlier work
phospho-ERK1/2 = settings: rat MCT model; cited from earlier work

## Cc1ccc(NC(=O)c2ccc(CN3CCN(C)CC3)cc2)cc1Nc1nccc(-c2cccnc2)n1 [imatinib]
PASMCs
  migration of PASMCs: inhibited
Rat MCT model of PAH
  RVSP: decreased
  survival: improved
Patients with PAH; 6 month period, US 2011/0190313
  primary efficacy parameter (6MWD) compared with placebo: did not improve
Patients with PAH; IMPRES trial, patients with severe PAH
  6-min walk distance: improvement
phospho-ERK1/2
  phospho-ERK1/2: reduction
